Read-outs that look alike come from different tables or passages of the source.
Legend:
A2A AdoR [1] = test: Coronary blood flow and reversal time in open-chest anesthetized pigs
Protocol: Farm pigs weighing 22-27 kg were used in this study.
Anesthesia was anesthetized with ketamine (20 mg/kg, i.m.) and sodium pentobarbital (15-18 mg/kg i.v.). Anesthesia was maintained with additional sodium pentobarbital (1.5-2 mg/kg, i.v.) every 15-20 minutes. Ventilation was maintained via a tracheotomy using a mixture of room air and 100% O2. Tidal volume, respiratory rate and fraction of O2 in inspired air were adjusted to maintain normal arterial blood gas (ABG) and pH values. […] Lactate Ringers solution was administered via an ear or femoral vein, at 5-7 ml/kg/min after a initial bolus of 300-400 ml. A catheter was inserted into the femoral artery to monitor arterial blood pressure and to obtain ABG samples.
The heart was exposed through a median stemotomy, and suspended in a pericardial cradle. Left ventricular pressure (LVP) was measured with a 5F high fidelity pressure sensitive tip transducer (Millar Instrunents, Houston, Tex.) placed in the left ventricular cavity via the apex and secured with a purse string suture. A segment of the left anterior descending coronary artery (LAD), proximal to the origin of the first diagonal branch, was dissected free of, surrounding tissue. A transit time perivascular flow probe (Transonic Systems Inc., Ithaca, N.Y.) was placed around this segment to measure coronary blood flow (CBF). Proximal to the flow probe a 24 g modified angiocatheter was inserted for intracoronary infusions. […] A2A AdoR agonists were dissolved in DMSO to produce stock concentrations of 1-5 mM, which were diluted in 0.9% saline and infused at rates of 1-1.5 ml/min. The A2A AdoR agonists were administered intracoronary. To maintain blood pressure constant, phenylephrine was administered intravenously. The phenylephrine stock solution (30 mM) was prepared in distilled water.
Prior to initiating the experiment, a 30-minute stabilization period followed the completion of all instrumentation. […] The time to recovery of 50% (t 0.5) and 90% (t0.9) of baseline CBF were recorded. Ten to 15 minutes after CBF returned to pre-drug values a second infusion with a different agonist was started. […] The effect of a maximum of three different agonists was determined in each experiment.

A1 AdoR [2] = biological target: A1 AdoR (Rattus norvegicus (Rat), UniProt P25099); test: A-V nodal conduction time (negative dromotropic effect) in rat isolated perfused hearts; settings: Compound 16 0.1-30 μM, CVT510 100-400 nM
Protocol: (§1) In experiments in which A1 adenosine receptor-mediated negative dromotropic effect was measured, atrial and ventricular surface electrograms were recorded during constant atrial pacing.
(§2) A1 adenosine receptor-mediated depression of A-V nodal conduction time (negative dromotropic effect) was measured. Atrial and ventricular surface electrograms in rats and His bundle electrogram in guinea pigs, were recorded during constant atrial pacing.
(§3) Hearts were instrumented for continuous recording of coronary perfusion pressure (A2A response) and atrioventricular (A-V) conduction time or S-H interval (A1 response).

A2A receptor = A2A receptor (Sus scrofa, UniProt K9IW67); test: A2A receptor affinity in pig striatum membrane prep (tritiated ZM 241385 displacement); type: binding
Protocol: Compounds of this invention were assayed to determine their affinity for the A2A receptor in a pig striatum membrane prep. […]. To the pig membranes was added 2 μL of serially diluted DMSO stock solution of the compounds of this invention at concentrations ranging from 10 nM to 100 microM or the control received 2 microL of DMSO alone, then the antagonist ZM 241385 in Tris buffer (50 mM, pH of 7.4) was added to achieve a final concentration of 2 nM. After incubation at 23° C. for 2 h, then the solutions were filtered using a membrane harvester using multiple washing of the membranes (3×). The filter disks were counted in scintillation cocktail to determine the amount of displacement of tritiated ZM displaced by the compounds of this invention. Greater than a 5 point curve was used to generate Ki's and the number of experiments is indicated in the column marked in Table 1 below.

A2A adenosine receptor = A2A adenosine receptor (Rattus norvegicus (Rat), UniProt P30543); test: Reversal time of coronary vasodilation in rat isolated perfused hearts; settings: bolus injection
Protocol: Adult Sprague Dawley rats of either sex weighing from 230 to 260 grams were used in this study. Animals were anesthetized by peritoneal injection of a cocktail containing ketamine and xylazine (ketamine 100 mg, xylazine 20 mg/ml). The chest was opened and the heart quickly removed. The heart was briefly rinsed in ice-cold Krebs-Henseleit solution (see below), and the aorta cannulated. […] The heart was electrically paced at a fixed cycle length of 340 ms (250 beats/min) using a bipolar electrode place on the left atrium. The electrical stimuli were generated by a Grass stimulator (Model S48, W. Warwick, R.I.) and delivered through a Stimuli Isolation Unit (Model SIU5, Astro-Med, Inc., N.Y.) as square-wave pulses of 3 msec in duration and amplitude of at least twice the threshold intensity.
Coronary perfusion pressure (CPP) was measured using a pressure transducer, connected to the aortic cannula via a T-connector positioned approximately 3 cm above the heart Coronary perfusion pressure was monitored throughout the experiment and recorded either on a chart recorder (Gould Recorder ^2200S) or a computerized recording system (PowerLab/4S, ADInstruments Pty Ltd, Australia). Only hearts with CPP ranging from 60 to 85 mmHg (in the absence of drugs) were used in the study.
Protocol A: Bolus injections. […] The times to 50% (t 0.5) and 90%/o (t 0.9) reversal of the decrease in CPP were measured. Each heart was exposed to a maximum of three vasodilators.
Protocol B: Continuous infusion. […] The times to 50% (t 0.5) and 90% (t 0.9) reversal of the decreases in CPP were measured from the time at which the infusion of the agonists was stopped. […] In addition, the duration of the injection was varied according to the volume of the boluses such as 10, 20 and 30 sec for 100, 200 and 300 μl boluses respectively. […] Boluses of various agonists were injected into the perfusion line of rat isolated perfused hearts (n=4 to 6 for each agonist) and the time to 90% (t0.9) reversal of the decrease in CPP measured.

human A2AAdoR = human A2AAdoR (Homo sapiens (Human), UniProt P29274); settings: conclusion of Example 15
Protocol: Adenosine deaminase was purchased from Boehringer Mannheim Biochemicals Indianapolis, Id., U.S.A). [^3H]ZM241385 (Lot No. 1) was purchased from Tocris Cookson Ltd (Langford, Bristol, UK).
At the end of incubation, bound and free radioligands were separated by filtration through Whatman GF/C glass fiber filters using a Brandel tissue harvester (Gaithersburg, Md.). Triplicate determinations were performed for each concentration of the competing agent.
The affinity ([…]) of various CVT compounds for the A1 and A2A adenosine receptor were determined by their potency to compete for [^3H]CPX (A1) or [^3H]ZM241385 (A2A) binding sites on membranes derived from CHO-hA1AdoR, PC12 or HEK-HA2AAdoR cells. […] The affinity of selected compounds for A2B and A3 receptors were assessed by their potencies to compete for [^3H] […] ABMECA (A3) binding sites on membranes derived from HEK-hA2BAdoR and CHO-hA3AdoR cells, respectively.

human A1AdoR = human A1AdoR (Homo sapiens (Human), UniProt P30542); test: Competition binding, [3H]DPCPX/[3H]CPX sites on CHO-hA1AdoR cell membranes; settings: in presence of Gpp(NH)p 100 μM
human A2BAdoR = human A2BAdoR (Homo sapiens (Human), UniProt P29275); test: Competition for [3H]CPX binding sites on HEK-hA2BAdoR membranes; settings: compound at 10 μM
Protocol: (§4) Cell culture and membrane preparation-PC12 cells were obtained from the American Type Culture Collection and grown in DMEM with 5% fetal bovine serum, 10% horse serum, 0.5 mmol/L L-glutamine, 100 U/mL penicillin, 0.1 mg/mL streptomycin, and 2.5 μg/mL amphotericin. HEK-293 cells stably expressing recombinant human A2BAdoRs (HEK-hA2BAdoR) were grown in DMEM supplemented with 10% fetal bovine serum and 0.5 mg/mL G-418. CHOK1 cells stably expressing the recombinant human A1AdoR (CHO-hA1AdoR) and A3AdoR (CHO-hA3AdoR) were grown as monolayers on 150-mm plastic culture dishes in Ham's F-12 media supplemented with 10% fetal bovine serum in the presence of 0.5 mg/mL G-418. Cells were cultured in an atmosphere of 5% CO2/95% air maintained at 37° C.
(§5) To make membranes, cells were detached from the culture plates into ice-cold 50 mmol/L Tris-HCl buffer (pH7.4). […] The protein concentration of membrane suspensions was determined using the Bradford method (Bio-Rad) with bovine serum as standards. […]
(§6) The affinity ([…]) of various CVT compounds for the A1 and A2A adenosine receptor were determined by their potency to compete for [^3H]CPX (A1) or [^3H]ZM241385 (A2A) binding sites on membranes derived from CHO-hA1AdoR, PC12 or HEK-HA2AAdoR cells. […] The affinity of selected compounds for A2B and A3 receptors were assessed by their potencies to compete for [^3H] […]

human A3AdoR = human A3AdoR (Homo sapiens (Human), UniProt P0DMS8); test: Competition for [125I]ABMECA binding sites on CHO-hA3AdoR membranes; settings: compound at 10 μM
Protocol: as §4, §5, §6

A2A AdoR [3] = biological target: A2A AdoR (Cavia porcellus (Guinea pig), UniProt P46616)
Source text: as §3

A2A AdoR [4] = biological target: A2A AdoR (Rattus norvegicus (Rat), UniProt P30543)
Source text: as §3

A1 AdoR [5] = biological target: A1 AdoR (Cavia porcellus (Guinea pig), UniProt P47745)
Protocol: as §1, §2, §3

[6] = pig striatal membranes, displacement of tritiated ZM 241385 (2 nM), 23° C. 2 h; read-out: A2a Ki

A2A receptor, sequence (K9IW67 1-409): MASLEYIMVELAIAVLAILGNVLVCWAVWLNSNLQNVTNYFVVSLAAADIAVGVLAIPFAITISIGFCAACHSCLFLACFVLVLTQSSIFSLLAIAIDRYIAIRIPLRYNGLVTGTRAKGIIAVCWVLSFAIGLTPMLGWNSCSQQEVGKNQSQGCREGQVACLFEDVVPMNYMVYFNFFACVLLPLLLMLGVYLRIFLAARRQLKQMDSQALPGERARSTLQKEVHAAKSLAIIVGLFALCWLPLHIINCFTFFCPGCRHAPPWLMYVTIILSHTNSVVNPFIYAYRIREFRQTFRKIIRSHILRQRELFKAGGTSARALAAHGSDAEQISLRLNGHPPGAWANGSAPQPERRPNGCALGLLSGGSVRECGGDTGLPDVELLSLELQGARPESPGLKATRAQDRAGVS
A2A adenosine receptor, sequence (P30543 whole entry, the tested form may be a part): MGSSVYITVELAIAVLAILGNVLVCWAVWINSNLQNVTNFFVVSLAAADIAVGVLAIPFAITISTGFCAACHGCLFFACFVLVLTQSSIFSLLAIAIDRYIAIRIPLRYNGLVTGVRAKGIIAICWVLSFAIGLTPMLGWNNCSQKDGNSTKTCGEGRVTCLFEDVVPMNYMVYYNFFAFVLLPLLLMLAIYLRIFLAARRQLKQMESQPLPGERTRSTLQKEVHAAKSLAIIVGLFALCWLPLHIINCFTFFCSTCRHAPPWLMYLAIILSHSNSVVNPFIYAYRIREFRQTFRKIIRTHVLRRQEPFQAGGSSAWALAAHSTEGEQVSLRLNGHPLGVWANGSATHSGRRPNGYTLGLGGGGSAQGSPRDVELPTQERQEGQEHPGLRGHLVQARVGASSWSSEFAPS
human A1AdoR, sequence (P30542 whole entry): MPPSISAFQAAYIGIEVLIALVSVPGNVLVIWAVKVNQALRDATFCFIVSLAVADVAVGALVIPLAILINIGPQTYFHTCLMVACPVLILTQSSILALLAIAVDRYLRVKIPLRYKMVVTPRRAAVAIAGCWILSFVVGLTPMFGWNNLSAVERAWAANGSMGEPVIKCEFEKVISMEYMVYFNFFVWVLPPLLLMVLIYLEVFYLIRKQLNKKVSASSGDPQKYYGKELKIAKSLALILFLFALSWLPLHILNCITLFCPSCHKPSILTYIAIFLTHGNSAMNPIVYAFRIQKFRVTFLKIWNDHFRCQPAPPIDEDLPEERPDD
A1 AdoR (Rattus norvegicus (Rat), UniProt P25099), sequence (P25099 whole entry, the tested form may be a part): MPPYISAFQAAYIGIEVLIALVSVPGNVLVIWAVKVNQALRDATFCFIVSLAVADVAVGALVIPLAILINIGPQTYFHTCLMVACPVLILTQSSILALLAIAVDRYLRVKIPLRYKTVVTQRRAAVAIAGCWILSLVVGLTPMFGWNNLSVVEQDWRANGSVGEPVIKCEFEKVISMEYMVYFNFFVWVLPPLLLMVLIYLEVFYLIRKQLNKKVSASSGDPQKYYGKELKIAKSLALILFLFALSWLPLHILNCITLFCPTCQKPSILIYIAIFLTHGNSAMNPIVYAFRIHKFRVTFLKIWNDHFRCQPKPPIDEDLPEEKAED
A2A AdoR (Cavia porcellus (Guinea pig), UniProt P46616), sequence (P46616 whole entry): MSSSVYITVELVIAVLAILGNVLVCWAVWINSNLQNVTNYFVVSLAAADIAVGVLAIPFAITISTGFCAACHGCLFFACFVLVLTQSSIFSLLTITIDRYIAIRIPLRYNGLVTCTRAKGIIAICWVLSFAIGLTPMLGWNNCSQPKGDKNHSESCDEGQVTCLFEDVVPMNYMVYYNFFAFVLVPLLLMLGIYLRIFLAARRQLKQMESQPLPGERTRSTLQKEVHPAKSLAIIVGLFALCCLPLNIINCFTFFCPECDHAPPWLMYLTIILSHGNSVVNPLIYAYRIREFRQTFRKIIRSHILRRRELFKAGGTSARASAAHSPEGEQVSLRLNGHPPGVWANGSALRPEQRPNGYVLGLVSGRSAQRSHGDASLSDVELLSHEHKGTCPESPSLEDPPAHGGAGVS
A2A AdoR (Rattus norvegicus (Rat), UniProt P30543), sequence (P30543 whole entry): as the sequence (P30543 whole entry, the tested form may be a part) above
human A2BAdoR, sequence (P29275 whole entry): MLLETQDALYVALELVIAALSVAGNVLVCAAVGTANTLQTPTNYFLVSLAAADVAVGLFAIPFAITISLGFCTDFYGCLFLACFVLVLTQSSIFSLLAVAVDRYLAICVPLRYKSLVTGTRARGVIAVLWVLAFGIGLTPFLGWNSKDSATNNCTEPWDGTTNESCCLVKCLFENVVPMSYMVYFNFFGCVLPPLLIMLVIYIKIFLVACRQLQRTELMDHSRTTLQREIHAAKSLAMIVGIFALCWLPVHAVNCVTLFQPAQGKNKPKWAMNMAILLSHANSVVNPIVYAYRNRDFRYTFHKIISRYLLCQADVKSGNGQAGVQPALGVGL
A1 AdoR (Cavia porcellus (Guinea pig), UniProt P47745), sequence (P47745 whole entry): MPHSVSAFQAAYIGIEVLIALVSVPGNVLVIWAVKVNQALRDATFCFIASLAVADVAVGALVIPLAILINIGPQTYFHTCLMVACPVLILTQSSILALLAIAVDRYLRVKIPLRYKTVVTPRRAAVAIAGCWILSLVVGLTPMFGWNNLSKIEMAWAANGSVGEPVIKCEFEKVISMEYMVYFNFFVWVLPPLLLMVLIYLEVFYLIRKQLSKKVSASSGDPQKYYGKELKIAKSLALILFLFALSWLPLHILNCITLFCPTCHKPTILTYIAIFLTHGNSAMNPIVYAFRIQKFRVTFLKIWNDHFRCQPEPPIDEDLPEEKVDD
human A2AAdoR, sequence (P29274 whole entry): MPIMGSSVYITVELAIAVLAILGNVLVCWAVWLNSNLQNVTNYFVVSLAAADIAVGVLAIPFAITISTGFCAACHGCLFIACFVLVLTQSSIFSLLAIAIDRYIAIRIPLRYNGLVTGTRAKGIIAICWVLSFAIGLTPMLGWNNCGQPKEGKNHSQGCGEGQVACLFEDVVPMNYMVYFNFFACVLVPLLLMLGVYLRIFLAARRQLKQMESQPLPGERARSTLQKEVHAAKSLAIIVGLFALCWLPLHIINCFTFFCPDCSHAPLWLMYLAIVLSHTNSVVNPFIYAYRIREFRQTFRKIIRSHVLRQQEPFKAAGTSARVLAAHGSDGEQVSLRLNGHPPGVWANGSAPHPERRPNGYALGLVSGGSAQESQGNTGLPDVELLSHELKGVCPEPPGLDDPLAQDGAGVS
human A3AdoR, sequence (P0DMS8 whole entry): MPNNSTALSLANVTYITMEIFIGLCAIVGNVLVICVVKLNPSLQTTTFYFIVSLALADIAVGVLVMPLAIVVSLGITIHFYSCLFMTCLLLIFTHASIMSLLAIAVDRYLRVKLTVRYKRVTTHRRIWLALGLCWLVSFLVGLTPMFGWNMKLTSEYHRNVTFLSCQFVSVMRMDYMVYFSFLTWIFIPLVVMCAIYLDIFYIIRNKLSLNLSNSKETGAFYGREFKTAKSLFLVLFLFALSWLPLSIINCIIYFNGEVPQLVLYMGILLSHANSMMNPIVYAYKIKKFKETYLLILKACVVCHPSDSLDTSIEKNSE

## CCNC(=O)[C@H]1O[C@@H](n2cnc3c(N)nc(NCCc4ccc(CCC(=O)O)cc4)nc32)[C@H](O)[C@@H]1O [CGS21680]
A2A AdoR [1]; 2 μg/kg/min
  t 0.5 (min), time to 50% reversal of the increase in coronary blood flow: 9.7 ± 0.8 min
  t 0.9 (min), time to 90% reversal of the increase in coronary blood flow: 21.4 ± 0.8 min

## OC[C@H]1O[C@@H](n2cnc3c(N[C@@H]4CCOC4)ncnc32)[C@H](O)[C@@H]1O [CVT510, 2-{6-[((3R)oxolan-3-yl)amino]purin-9-yl}(4S,3R,5R)-(hydroxymethyl)oxolane-3,4-diol, reference compound]
A1 AdoR [2]
  Effect on A-V nodal conduction time: significantly prolonged

## CCOC(=O)c1cnn(-c2nc(N)c3ncn([C@@H]4O[C@H](CO)[C@@H](O)[C@H]4O)c3n2)c1 [Compound 12, Ethyl 1-{9-[(4S,2R,3R,5R)-3,4-dihydroxy-5-(hydroxymethyl)oxolan-2-yl]-6-aminopurin-2-yl}pyrazole-4-carboxylate]
A2A receptor; [6]
  Ki: 10 to 1000 nM
A2A adenosine receptor
  t 0.5 (min), time to 50% reversal of the increase in coronary conductance: 14.83 ± 2.1 min
  t 0.9 (min), time to 90% reversal of the increase in coronary conductance: 15.0 ± 0.8 min

## COc1ccc(-c2cnn(-c3nc(N)c4ncn(C5O[C@H](CO)[C@@H](O)[C@H]5O)c4n3)c2)cc1 (stereo partly drawn) [Compound 14, (4S,2R,3R,5R)-2-{6-Amino-2-[4-(4-metboxyphenyl)pyrazolyl]purin-9-yl}-5-(hydroxymethyl)oxolane-3,4-diol]
A2A receptor; [6]
  Ki: 1000 to 10000 nM

## Cc1ccc(-c2cnn(-c3nc(N)c4ncn(C5O[C@H](CO)[C@@H](O)[C@H]5O)c4n3)c2)cc1 (stereo partly drawn) [Compound 15]
A2A receptor; [6]
  Ki: 1000 to 10000 nM

## CNC(=O)c1cnn(-c2nc(N)c3ncn(C4O[C@H](CO)[C@@H](O)[C@H]4O)c3n2)c1 (stereo partly drawn) [Compound 16, (1-{9-[(4S,2R,3R,5R)-3,4-dihydroxy-5-(bydroxymethyl)oxolan-2-yl]-6-aminopurin-2-yl}pyrazol-4-yl)-N-methylcarboxamide]
A2A receptor; read-out: A2a Ki; pig striatal membranes, displacement of tritiated ZM 241385 (2 nM), 23° C. 2 h
  Ki: 1000 to 10000 nM
Human A2AAdoR
  A2A affinity in words: low affinity A2A agonist
Human A1AdoR; read-out: Binding Affinity Ki, CHO-hA1AR
  Ki: > 16500 nM
Human A1AdoR; read-out: Binding Affinity pKi ± SEM, CHO-hA1AR (converted)
  Ki: 25700 nM
Human A2BAdoR
  Decrease of specific binding of [3H]CPX (HEK-hA2BAdoR): 20%
Human A3AdoR
  Decrease of specific binding of [125I]IBMECA (CHO-hA3AdoR): 22%
A2A AdoR [3]
  EC50: 18.6 ± 6 nM
A2A AdoR [4]
  EC50: 6.4 ± 0.6 nM
A1 AdoR [2]
  Effect on A-V nodal conduction time: did not prolong
A1 AdoR [5]
  EC50: 4000 ± 2300 nM

## Nc1nc(-n2cc(C(=O)O)cn2)nc2c1ncn2[C@@H]1O[C@H](CO)[C@@H](O)[C@H]1O [Compound 17, 1-{9-[(4S,2R,3R,5R)-3,4-dihydroxy-5-(hydroxymethyl)oxolan-2-yl]-6-aminopurin-2-yl}pyrazole-4-carboxylic acid]
A2A receptor; [6]
  Ki: > 100000 nM

## CN(C)C(=O)c1cnn(-c2nc(N)c3ncn([C@@H]4O[C@H](CO)[C@@H](O)[C@H]4O)c3n2)c1 [Compound 18, (1-{9-[(4S,2R,3R,5R)-3,4-dihydroxy-5-(hydroxymethyl)oxolan-2-yl]-6-aminopurin-2-yl}pyrazol-4-yl)-N,N-dimethylcarboxamide]
A2A receptor; [6]
  Ki: 10 to 1000 nM

## CCNC(=O)c1cnn(-c2nc(N)c3ncn(C4O[C@H](CO)[C@@H](O)[C@H]4O)c3n2)c1 (stereo partly drawn) [Compound 19, (1-{9-[(4S,2R,3R,5R)-3,4-dihydroxy-5-(hydrozymethyl)oxolan-2-yl]-6-aminopurin-2-yl}pyrazol-4-yl)-N-ethylcarboxamide]
A2A receptor; [6]
  Ki: 10 to 1000 nM

## NC(=O)c1cnn(-c2nc(N)c3ncn([C@@H]4O[C@H](CO)[C@@H](O)[C@H]4O)c3n2)c1 [Compound 20, 1-{9-[(4S,2R,3R,5R)-3,4-dihydroxy-5-(hydroxymethyl)oxolan-2-yl]-6-aminopurin-2-yl}pyrazole-4-carboxamide]
A2A receptor; [6]
  Ki: 10 to 1000 nM

## Nc1nc(-n2cc(C(=O)NC3CCCC3)cn2)nc2c1ncn2[C@@H]1O[C@H](CO)[C@@H](O)[C@H]1O [Compound 21, (1-{9-[(4S,2R,3R,5R)-3,4-dihydroxy-5-(hydroxymethyl)oxolan-2-yl]-6-aminopurin-2-yl}pyrazol-4-yl)-N-(cyclopentyl)carboxamide]
A2A receptor; [6]
  Ki: 10 to 1000 nM

## Nc1nc(-n2cc(C(=O)NCc3ccc(Cl)cc3)cn2)nc2c1ncn2[C@@H]1O[C@H](CO)[C@@H](O)[C@H]1O [Compound 22, (1-{9-[(4S,2R,3R,5R)-3,4-dihydroxy-5-(hydroxymethyl)oxolan-2-yl]-6-aminopurin-2yl}pyrazol-4yl)-N-[(4-chlorophenyl)methyl]carboxamide]
A2A receptor; [6]
  Ki: 10 to 1000 nM

## CCCCC#Cc1nc(N)c2ncn([C@@H]3O[C@H](C(=O)NCC)[C@@H](O)[C@H]3O)c2n1 [HENECA, N-ethyl-1′-deoxy-1′-(6-amino-2-hexynyl-9H-purin9-yl)-beta-D-ribofuranuronamide]
A2A adenosine receptor
  t 0.5 (min), time to 50% reversal of the increase in coronary conductance: 28.6 ± 1.1 min
  t 0.9 (min), time to 90% reversal of the increase in coronary conductance: 32.8 ± 3.1 min

## Nc1nc(N/N=C/C2CCCCC2)nc2c1ncn2[C@@H]1O[C@H](CO)[C@@H](O)[C@H]1O [WRC-0470, 2-cyclohexylmethylidenehydrazino-adenosine]
A2A AdoR [1]; 1 μg/kg/min
  t 0.5 (min), time to 50% reversal of the increase in coronary blood flow: 9.5 ± 0.8 min
  t 0.9 (min), time to 90% reversal of the increase in coronary blood flow: 22.5 ± 1.6 min

## CCCCCCC#Cc1nc(N)c2ncn([C@@H]3O[C@H](CO)[C@@H](O)[C@H]3O)c2n1 [YT-146, 2-alkynyladenosine]
A2A AdoR [1]; 1 μg/kg/min
  t 0.5 (min), time to 50% reversal of the increase in coronary blood flow: 17.8 ± 3.4 min
  t 0.9 (min), time to 90% reversal of the increase in coronary blood flow: 32.9 ± 5.6 min
A2A AdoR [1]; 1 μg/kg/min intracoronary infusion
  CBF (“Fold Increase”): 3.44 ± 0.47 fold
A2A adenosine receptor
  t 0.5 (min), time to 50% reversal of the increase in coronary conductance: 17.7 ± 1.0 min
  t 0.9 (min), time to 90% reversal of the increase in coronary conductance: 28.5 ± 4.0 min

From USRE47351E1 (Gilead Sciences, Inc., priority 1999, dated 2019)
